Measurements as given in PubChem BioAssay (NCI).
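Compound exposure: 48 hours, 5 concentrations, 96-well plates. TGI: concentration producing complete growth inhibition.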

Columns and labels:
Assay in all cases: inhibition of tumour cell growth, NCI panel, 48 h
EKVX NSCLC = tested on: EKVX NSCLC
T-47D breast = tested on: T-47D breast
HOP-62 NSCLC = tested on: HOP-62 NSCLC
SR leukemia = tested on: SR leukemia
COLO 205 colon = tested on: COLO 205 colon
786-0 renal = tested on: 786-0 renal
SNB-75 CNS = tested on: SNB-75 CNS
SK-OV-3 ovarian = tested on: SK-OV-3 ovarian
K-562 leukemia = tested on: K-562 leukemia
PC-3 prostate = tested on: PC-3 prostate
NCI-H460 lung = tested on: NCI-H460 lung
NCI-H226 lung = tested on: NCI-H226 lung

Structure (SMILES)	TGI (EKVX NSCLC) [µM]	TGI (T-47D breast) [µM]	TGI (HOP-62 NSCLC) [µM]	TGI (SR leukemia) [µM]	TGI (COLO 205 colon) [µM]	TGI (786-0 renal) [µM]	TGI (SNB-75 CNS) [µM]	TGI (SK-OV-3 ovarian) [µM]	TGI (K-562 leukemia) [µM]	TGI (PC-3 prostate) [µM]	TGI (NCI-H460 lung) [µM]	TGI (NCI-H226 lung) [µM]
O=c1nc2n(CCO)c(-c3ccccc3)c(-c3ccccc3)nc-2c(=O)[nH]1	> 100	> 100	> 100	> 100	> 100	> 100	> 100	> 100	> 100	> 100	> 100	> 100
CC(=O)OCC(OC(C)=O)C(OC(C)=O)C(/C=N/N(C(C)=O)S(=O)(=O)c1ccc(/C=C2\NC(=O)NC2=O)cc1)OC(C)=O (stereo not given)	> 100	> 100	> 100	> 100	> 100	> 100	> 100	> 100	> 100	> 100	> 100	> 100
Cn1c(=O)nc2n(CCO)c(-c3ccccc3)c(-c3ccccc3)nc-2c1=O	> 100	> 100	> 100	> 100	> 100	> 100	> 100	> 100	> 100	> 100	> 100	> 100
CCOc1ccc(C2c3[nH]c4ccccc4c3CCN2C(=O)c2cccs2)cc1 (stereo not given)	> 100	> 100	> 100	> 100	> 100	> 100	> 100	> 100	> 100	> 100	32.8	43.4
CSc1nc(=S)[nH]c2n[nH]c(C)c12	> 100	> 100		> 100	> 100	> 100	> 100	> 100	> 100	> 100	> 100	> 100
CN(C)c1ccc(C(C#N)N2CCCN(C(C#N)c3ccc(N(C)C)cc3)C2c2ccc(N(C)C)cc2)cc1 (stereo not given)	> 100	> 100	> 100	> 100	> 100	> 100	> 100	> 100	> 100	> 100		> 100
CC(=O)Nc1c(C)cc(OCC(=O)O)cc1C	> 100	> 100	> 100	> 100	> 100	> 100	> 100	> 100	> 100	> 100	> 100	> 100
CCOP(=O)(CS(C)=O)O[C@@H]1C[C@H](C)CC[C@H]1C(C)C (stereo not given in full)	11.2	> 29.7	21.4	> 100	19.8	6.35	> 27.5	19.9	> 100	19.7	17.6	12.2
CC[C@@]1(O)C(=O)OCc2c1c(Cl)c1n(c2=O)Cc2cc3ccccc3nc2-1	> 70.5	> 23	8.03	> 23.7	> 100	6.68	12.7	45.5	> 100	> 100	4.25	31.2
CCOC(=O)CNC(=O)C(CSC(=O)N(O)c1ccc(Br)cc1)NC(=O)CCC(N)C(=O)OCC (stereo not given)	> 50	> 50	> 50	> 50	> 50	> 50		> 50	> 50	> 50	> 50	> 50
COc1ccc(NC=O)c(C(O)CCNC(C)=O)c1 (stereo not given)	> 100	> 100		> 100	> 100	> 100	> 100	> 100	> 100	> 100	> 100	> 100
CCCCCCC(N)(CCCCCC)C(=O)Nn1c(C)ccc1C	58.4	> 100	> 100	> 100	> 100	> 100	> 100	> 100	> 100	> 100	> 100	> 100
Oc1ccccc1C=Nc1ccc(Oc2ccc(Cl)cc2)c(Cl)c1	52	40.1	34.7	69.3	41.1	98.7	58.6	71.2		53.6	54.5	93.9
CCOC(=O)[C@H]1C[C@@H](C(=O)c2ccccc2)N2N=C(c3ccc(Br)cc3)C=C[C@H]12		> 100	> 100	> 100	> 100	> 100	> 100	> 100	> 100	> 100	> 100	> 100
Cc1ccc2c(ccc3c[n+]4ccccc4c(C)c32)c1	> 100	12.2	11.3	46.3	3.84	19.1		44.8	> 100	15.9	> 100	5.71
CCN(CC)c1ccc(/C=C/C2=NN(c3cccc(S(=O)(=O)O)c3)C3(C2)C(Cl)C(=O)N3c2nc3ccccc3s2)cc1 (stereo not given)	39.2	12.9	22.9	7.41	31.8	15.9	25.3	39.3	49.8	25.1	25.8	34.2
N#C/C(=C\c1ccc(Cl)cc1)c1nc2ccccc2c(=O)[nH]1	> 100	> 100	> 100	> 100	> 100	> 100	61.7	> 100	> 100	> 100	> 100	> 100
O=c1cc(-c2ccc(O)c(O)c2)oc2cc(OC3OC(CO)C(O)C(O)C3O)cc(O)c12 (stereo not given)	> 100	> 100	> 100	> 100	> 100	> 100	> 100	> 100		> 100	> 100	> 100
NC(=S)N/N=C/c1cc(CN2CCOCC2)c(N)cn1	> 100	> 100	> 100	> 100	> 100	> 100	89.4	> 100	> 100	> 100	> 100	45.8
